According to patent publication US20030208079A1, “Piperidinylaminomethyl trifluoromethyl cyclic ether compounds as substance P antagonists” (Pfizer Inc., priority 1997, published 2003):

Test system: plasma protein extravasation in the ureter
Assay: capsaicin-induced plasma extravasation test
Assay type: in vivo
Details: 0.03 mg/kg, given orally 1 hour before capsaicin challenge, male guinea pigs
Method: In this test, anti-inflammatory activity is determined as the percent inhibition of plasma protein extravasation in the ureter of pentobarbital-anesthetized (25 mg/kg i.p.) male Hartey guinea pigs (weighing 300-350 g). Plasma extravasation is induced by intraperitoneal injection of capsaicin (30 μM in 0.1 BSA containing buffer, 10 ml/animal) into the animals, which are fasted overnight. The compounds of this invention were dissolved in 0.1% methyl cellulose-water and given orally 1 hour before capsaicin challenge. Evans blue dye (30 mg/kg) was administered intravenously 5 minutes before challenge. The animals were killed 10 minutes after capsaicin injection and both right and left ureter were removed. Tissue dye content was quantitated at 600 nm absorbance after overnight formamide extraction.

SMILES: COc1cc2c(cc1CN[C@H]1CCCN[C@H]1c1ccccc1)C(C)(C(F)(F)F)OCC2.Cl.Cl (stereo partly drawn) [Example 3, (2S,3S)-3-(6-Methoxy-1-methyl-1-trifluoromethylisochroman-7-yl)methylamino-2-phenylpiperidine Dihydrochloride]
- percent inhibition of plasma protein extravasation: 98%
